Patent US20060116390A1, “Hepatitis c virus inhibitors” (priority 2003, published 2006)
Where two headings read alike, the source gives them in different places.

Tested on: HCV proteins in Rep5.1 cells (replicon cell line)
Experiment: Inhibitory activity of HCV: cell-based ELISA in replicon cell line Rep5.1 (decrease of HCV proteins)
Set-up: species or system hepatitis C virus
Conditions: Hepatitis C virus, 72 h
In short: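 Rep5.1 replicon cells (5000/well, DMEM-10 with 500 μg/ml G418) were given serially diluted drug 4 h after seeding. After 72 h, cells were fixed in methanol/acetone and HCV proteins detected by cell-based ELISA using replicon-specific patient plasma antibodies. IC50 is the concentration giving 50% protein decrease versus the no-drug control.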

[1] = Rep5.1 cells, 72 hours with drug, concentration at which 50% of HCV proteins was decreased, Table 2, read-out: IC50
[2] = Rep5.1 cells, 72 hours with drug, decrease of HCV proteins measured by HCV antibody, Table 1, read-out: Level (IC50 values classified)

Structure (SMILES) | IC50 [1] | IC50 [2] | IC50 | IC50 (read-out: Level (IC50 values classified))
CCc1ccc(CCOC(=O)C2=C(C)NC(=S)NC2CO)cc1F (stereo not drawn) [72″, 4-hydroxymethyl-6-methyl-2-thioxo-1,2,3,4-tetrahydro-pyrimidine-5-carboxylic acid 2-(4-ethyl-3-fluoro-phenyl)-ethyl ester] | 400 nM | < 1000 nM | – | –
CC1=C(C(=O)OCCCc2ccsc2F)C(CF)NC(=S)N1 (stereo not drawn) [52′, 4-fluoromethyl-6-methyl-2-thioxo-1,2,3,4-tetrahydro-pyrimidine-5-carboxylic acid 3-(2-fluoro-thiophen-3-yl)-propyl ester] | 22000 nM | > 20000 nM | – | –
COc1ccc(C2(COC(=O)C3=C(C)NC(=S)NC3CF)CC2)cc1 (stereo not drawn) [66′, 4-fluoromethyl-6-methyl-2-thioxo-1,2,3,4-tetrahydro-pyrimidine-5-carboxylic acid 1-(4-methoxy-phenyl)-cyclopropylmethyl ester] | 8000 nM | 1000 to 10000 nM | – | –
CC1=C(C(=O)OCc2cccc(C)c2C)CNC(=S)N1 [Compound 156, 6-methyl-2-thioxo-1,2,3,4-tetrahydro-pyrimidine-5-carboxylic acid 2,3-dimethyl-benzyl ester] | 500 nM | < 1000 nM | – | –
CC1=C(C(=O)OCCc2cccc([N+](=O)[O-])c2)C(COC(=O)OCC2COC(C)(C)O2)NC(=S)N1 (stereo not drawn) [77″, 4-(2,2-dimethyl-[1,3]dioxolan-4-ylmethoxycarbonyloxymethyl)-6-methyl-2-thioxo-1,2,3,4-tetrahydro-pyrimidine-5-carboxylic acid 2-(3-nitro-phenyl)-ethyl ester] | 5600 nM | 1000 to 10000 nM | – | –
COC(=O)C(C)(C)COC(=O)OCC1NC(=S)NC(C)=C1C(=O)OCCc1cccc(Cl)c1 (stereo not drawn) [82″, 4-(2-methoxycarbonyl-2-methyl-propoxycarbonyloxymethyl)-6-methyl-2-thioxo-1,2,3,4-tetrahydro-pyrimidine-5-carboxylic acid 2-(3-chloro-phenyl)-ethyl ester] | 800 nM | < 1000 nM | – | –
CC1=C(C(=O)OCCCCCc2ccccc2)C(CO)NC(=S)N1 (stereo not drawn) [18″, 4-hydroxymethyl-6-methyl-2-thioxo-1,2,3,4-tetrahydro-pyrimidine-5-carboxylic acid 5-phenyl-pentyl ester] | < 400 nM | < 1000 nM | – | –
CC1=C(C(=O)OCCc2nc3ccccc3o2)CNC(=S)N1 [Compound 265, 6-methyl-2-thioxo-1,2,3,4-tetrahydro-pyrimidine-5-carboxylic acid 2-benzoxazol-2-yl-ethyl ester] | 6000 nM | 1000 to 10000 nM | – | –
COc1ccc(COC(=O)C2=C(C)NC(=S)NC2)cc1OC [Compound 40, 6-methyl-2-thioxo-1,2,3,4-tetrahydro-pyrimidine-5-carboxylic acid 3,4-dimethoxy-benzyl ester] | 92000 nM | > 20000 nM | – | –
CC1=C(C(=O)OCc2ccccc2S(=O)(=O)CC(C)C)CNC(=S)N1 [Compound 113, 6-methyl-2-thioxo-1,2,3,4-tetrahydro-pyrimidine-5-carboxylic acid 2-(2-methyl-propane-1-sulfonyl)-benzyl ester] | > 100000 nM | > 20000 nM | – | –
CC1=C(C(=O)OCCc2cccc(C(F)(F)F)c2)C(COC(=O)C(C)N)NC(=S)N1 (stereo not drawn) [73″, 4-(2-amino-propionyloxymethyl)-6-methyl-2-thioxo-1,2,3,4-tetrahydro-pyrimidine-5-carboxylic acid 2-(3-trifluoromethyl-phenyl)-ethyl ester] | 400 nM | < 1000 nM | – | –
CC1=C(C(=O)OCCc2cc(C)cc(C)c2)CNC(=S)N1 [Compound 175, 6-methyl-2-thioxo-1,2,3,4-tetrahydro-pyrimidine-5-carboxylic acid 2-(3,5-dimethylphenyl)-ethyl ester] | < 400 nM | < 1000 nM | – | –
CC1=C(C(=O)OCc2cc3c(C)nn(C)c3s2)CNC(=S)N1 [Compound 223, 6-methyl-2-thioxo-1,2,3,4-tetrahydro-pyrimidine-5-carboxylic acid 1,3-dimethyl-1H-thieno[2,3-c]pyrazol-5-ylmethyl ester] | 6000 nM | 1000 to 10000 nM | – | –
CC1=C(C(=O)OCc2cc(C)ccc2C)CNC(=S)N1 [Compound 149, 6-methyl-2-thioxo-1,2,3,4-tetrahydro-pyrimidine-5-carboxylic acid 2,5-dimethyl-benzyl ester] | < 400 nM | < 1000 nM | – | –
O=C(OCCc1ccsc1)C1=C(CO)NC(=S)NC1 [67′, 6-hydroxymethyl-2-thioxo-1,2,3,4-tetrahydro-pyrimidine-5-carboxylic acid 2-thiophen-3-yl-ethyl ester] | > 100000 nM | > 20000 nM | – | –
CCc1ccc(COC(=O)C2=C(C)NC(=S)NC2)o1 [Compound 264, 6-methyl-2-thioxo-1,2,3,4-tetrahydro-pyrimidine-5-carboxylic acid 5-ethyl-furan-2-ylmethyl ester] | 13000 nM | 10000 to 20000 nM | – | –
CC1=C(C(=O)OCc2ccc([S+](C)[O-])cc2)CNC(=S)N1 (stereo not drawn) [Compound 52, 6-methyl-2-thioxo-1,2,3,4-tetrahydro-pyrimidine-5-carboxylic acid 4-methylsulfinyl-benzyl ester] | 700 nM | < 1000 nM | – | –

Structure (SMILES) | IC50 [1] | IC50 [2] | IC50 | IC50 (read-out: Level (IC50 values classified))
CC1=C(C(=O)OCCc2c[nH]c3ccccc23)CNC(=S)N1 [Compound 102, 6-methyl-2-thioxo-1,2,3,4-tetrahydro-pyrimidine-5-carboxylic acid 2-(1H-indol-3-yl)-ethyl ester] | 2000 nM | 1000 to 10000 nM | – | –
CC1=C(C(=O)OCc2ccccc2C(F)(F)F)C(CF)NC(=S)N1 (stereo not drawn) [37′, 4-fluoromethyl-6-methyl-2-thioxo-1,2,3,4-tetrahydro-pyrimidine-5-carboxylic acid 2-trifluoromethyl-benzyl ester] | 600 nM | < 1000 nM | – | –
CC1=C(C(=O)OCCc2ccc(N3CCCCC3)c([N+](=O)[O-])c2)C(CO)NC(=S)N1 (stereo not drawn) [100″, 4-Hydroxymethyl-6-methyl-2-thioxo-1,2,3,4-tetrahydro-pyrimidine-5-carboxylic acid 2-(3-nitro-4-piperidin-1-yl-phenyl)-ethyl ester] | 900 nM | < 1000 nM | – | –
C=C(C)[C@@H]1CC=C(COC(=O)C2=C(C)NC(=S)NC2)CC1 [Compound 96, 6-methyl-2-thioxo-1,2,3,4-tetrahydro-pyrimidine-5-carboxylic acid (s)-(−)-4-isopropenyl-cyclohex-1-enylmethyl ester] | < 400 nM | < 1000 nM | – | –
CC1=C(C(=O)OCc2ccccn2)CNC(=S)N1 [Compound 154, 6-methyl-2-thioxo-1,2,3,4-tetrahydro-pyrimidine-5-carboxylic acid pyridin-2-ylmethyl ester] | > 100000 nM | > 20000 nM | – | –
CC1=C(C(=O)OCc2sc3sc(C)nc3c2C)CNC(=S)N1 [Compound 216, 6-methyl-2-thioxo-1,2,3,4-tetrahydro-pyrimidine-5-carboxylic acid 2,6-dimethyl-thieno[3,2-d]thiazol-5-ylmethyl ester] | 5000 nM | 1000 to 10000 nM | – | –
COc1cccc(COC(=O)C2=C(C)NC(=S)NC2)c1 [Compound 120, 6-methyl-2-thioxo-1,2,3,4-tetrahydro-pyrimidine-5-carboxylic acid 3-methoxy-benzyl ester] | 1000 nM | 1000 to 10000 nM | – | –
CCCCCCCCNC(=O)CCCCCOC(=O)C1=C(C)NC(=S)NC1 [19′, 6-methyl-2-thioxo-1,2,3,4-tetrahydro-pyrimidine-5-carboxylic acid 5-octylcarbamoyl-pentyl ester] | > 100000 nM | > 20000 nM | – | –
CC1=C(C(=O)OCc2ccc3c(c2)OCO3)CNC(=S)N1 [Compound 9, 6-methyl-2-thioxo-1,2,3,4-tetrahydro-pyrimidine-5-carboxylic acid benzo[1,3]dioxol-5-ylmethyl ester] | 4000 nM | 1000 to 10000 nM | – | –
CC1=C(C(=O)OCn2nnc3ccccc32)CNC(=S)N1 [Compound 225, 6-methyl-2-thioxo-1,2,3,4-tetrahydro-pyrimidine-5-carboxylic acid benzotriazol-1-ylmethyl ester] | > 100000 nM | > 20000 nM | – | –
CCOC(=O)OCC1NC(=S)NC(C)=C1C(=O)OCCc1cccc(Cl)c1 (stereo not drawn) [49″, 4-ethoxycarbonyloxymethyl-6-methyl-2-thioxo-1,2,3,4-tetrahydro-pyrimidine-5-carboxylic acid 2-(3-chloro-phenyl)-ethyl ester] | 3000 nM | 1000 to 10000 nM | – | –
CC1=C(C(=O)OCc2cc(F)cc(F)c2)C(CO)NC(=S)N1 (stereo not drawn) [71″, 4-hydroxymethyl-6-methyl-2-thioxo-1,2,3,4-tetrahydro-pyrimidine-5-carboxylic acid 3,5-difluoro-benzyl ester] | > 100000 nM | > 20000 nM | – | –
COc1ccc(CCCOC(=O)C2=C(C)NC(=S)NC2CF)cc1 (stereo not drawn) [43′, 4-fluoromethyl-6-methyl-2-thioxo-1,2,3,4-tetrahydro-pyrimidine-5-carboxylic acid 3-(4-methoxy-phenyl)-propyl ester] | 1800 nM | 1000 to 10000 nM | – | –
CC1=C(C(=O)OCC2CC3CCC2C3)CNC(=S)N1 (stereo not drawn) [Compound 151, 6-methyl-2-thioxo-1,2,3,4-tetrahydro-pyrimidine-5-carboxylic acid bicyclo[2.2.1]hept-2-ylmethyl ester] | – | – | < 400 nM | < 1000 nM
CC1=C(C(=O)OCc2cc(Cl)cc(Cl)c2)CNC(=S)N1 [Compound 131, 6-methyl-2-thioxo-1,2,3,4-tetrahydro-pyrimidine-5-carboxylic acid 3,5-dichloro-benzyl ester] | < 400 nM | < 1000 nM | – | –
CC1=C(C(=O)OCCc2ccsc2)[C@H](CF)NC(=S)N1 [24′, (R)-4-fluoromethyl-6-methyl-2-thioxo-1,2,3,4-tetrahydro-pyrimidine-5-carboxylic acid 2-thiophen-3-yl-ethyl ester] | 4400 nM | 1000 to 10000 nM | – | –
